# Test results from US10322999B2, “Oxindoles derivatives, preparation method thereof and pharmaceutical compositions for the prevention or treatment of cancer containing the same as an active ingredient” (RESEARCH & BUSINESS FOUNDATION SUNGKYUNKWAN UNIVERSITY, priority 2017, dated 2019).
# Read-outs that look alike come from different tables or passages of the source.
# Experiments:
# [1] = system: human lung cancer cell line (A459); test: MTT assay, growth inhibition of A549 cells; assay type: cell-based; details: for IC50: Homo sapiens
# Procedure: (§1) To evaluate the anticancer activity of the oxindole derivatives produced and analyzed in examples 1 to 8, MTT assay was performed to confirm the growth inhibitory effect on cancer cells. More specifically, human prostate adenocarcinoma cell line (LNCaP), human breast cancer cell line (MCF-7), human ovarian cancer cell line (SKOV3), human lung cancer cell line […] and human renal adenocarcinoma cell line (786-O) were cultured in DMEM medium supplemented with 1% penicillin/streptomycin and 10% fetal bovine serum (All from Life Technologies, Grand Island, N.Y.). Cells were seeded in 96-well plates (3×10^3 cells/well) containing 100 μL of growth medium for 24 hours. After the medium was removed, 100 μL of each of the different analogues (dissolved in DMSO to 0.025% or less) was added to each well and cultured at 37° C. for 48 hours. After 48 hours of incubation, 100 μL of MTT reagent was added to each well. After incubation at 37° C. for 4 hours, the supernatant was aspirated, and the formazan crystals were dissolved in 100 μL of DMSO at 37° C. for 10 minutes with gentle stirring. Absorbance per well was measured at 540 nm using a VERSA max microplate reader (Molecular Devices Corp.). IC50 values were defined as compound concentrations that inhibited cell proliferation by 50% compared to cells treated with the highest amount of DMSO (0.025%) and were considered to be 100% viability.
# [2] = system: human renal adenocarcinoma cell line (786-O); test: MTT assay, growth inhibition of 786-O cells; assay type: cell-based; details: for IC50: Homo sapiens; for inhibitory activity in 786-O (in words): summary of Table 3, 786-O
# Procedure: as §1
# all carcinomas = test: MTT assay, summary over all five cancer cell lines; assay type: cell-based, human; details: summary of Table 3, all five cell lines
# Procedure: as §1
# [3] = system: human ovarian cancer cell line (SKOV3); test: MTT assay, growth inhibition of SKOV3 cells; assay type: cell-based
# Procedure: as §1
# [4] = system: human prostate adenocarcinoma cell line (LNCaP); test: MTT assay, growth inhibition of LNCaP cells; assay type: cell-based; details: for IC50: Homo sapiens, LNCaP; for inhibitory activity in LNCaP (in words): summary of Table 3, LNCaP
# Procedure: as §1
# [5] = system: human breast cancer cell line (MCF-7); test: MTT assay, growth inhibition of MCF-7 cells; assay type: cell-based
# Procedure: as §1
# [6] = MTT, 48 hours incubation, A549, read-out: A549 (IC50)
# [7] = 786-0, MTT, 48 hours incubation, 786-O, read-out: 786-O (IC50)
# [8] = SK-OV-3, MTT, 48 hours incubation, SKOV3, read-out: SKOV3 (IC50)
# [9] = MTT, 48 hours incubation, read-out: LNCaP (IC50)
# [10] = MCF7, MTT, 48 hours incubation, MCF-7, read-out: MCF-7 (IC50)
# [11] = 48 h, read-out: A549 (IC50, μM)
# [12] = 786-0, 48 h, read-out: 786-O (IC50, μM)
# [13] = SK-OV-3, 48 h, read-out: SKOV3 (IC50, μM)
# [14] = 48 h, read-out: LNCaP (IC50, μM)
# [15] = MCF7, 48 h, read-out: MCF-7 (IC50, μM)
"IC50 [1, 6] [µM]","IC50 [2, 7] [µM]","IC50 [3, 8] [µM]","IC50 [4, 9] [µM]","IC50 [5, 10] [µM]",SMILES,inhibitory activity against all carcinomas (in words) (all carcinomas),inhibitory activity in LNCaP (in words) [4],"IC50 [1, 11] [µM]","IC50 [2, 12] [µM]","IC50 [3, 13] [µM]","IC50 [4, 14] [µM]","IC50 [5, 15] [µM]","inhibitory activity in A549 (in words) ([1]; summary of Table 3, A549)",inhibitory activity in 786-O (in words) [2]
28.9,10.5,20.3,12.2,16.6,"CCc1ccccc1NN1C(=O)C(CC(=O)NCc2ccccc2)c2cccc(CC)c21 (stereo not shown) [4c, N-Benzyl-2-(7-ethyl-1-((2-ethylphenyl)amino)-2-oxoindolin-3-yl)acetamide]",excellent,–,–,–,–,–,–,–,–
> 50,30.5,> 50,14.5,45.5,"CCc1ccccc1NN1C(=O)C(CC(=O)OC(C)C)c2cccc(CC)c21 (stereo not shown) [6c, Isopropyl 2-(7-ethyl-1-((2-ethylphenyl)amino)-2-oxoindolin-3-yl)acetate]",–,excellent activity,–,–,–,–,–,–,–
> 50,> 50,> 50,> 50,> 50,"CCc1cccc(NN2C(=O)C(CC(=O)NC)c3ccc(CC)cc32)c1 (stereo not shown) [3o, 2-(6-Ethyl-1-((3-ethylphenyl)amino)-2-oxoindolin-3-yl)-N-methylacetamide]",–,–,–,–,–,–,–,–,–
> 50,36.6,> 50,15.3,> 50,"CCc1ccccc1NN1C(=O)C(CC(=O)NC(C)(C)C)c2cccc(CC)c21 (stereo not shown) [4e, N-(tert-butyl)-2-(7-ethyl-1-((2-ethylphenyl)amino)-2-oxoindolin-3-yl)acetamide]",–,–,–,–,–,–,–,–,–
–,–,–,–,–,"CCc1ccccc1NN1C(=O)C(CC(=O)N[C@@H](C)C(=O)OC)c2cccc(CC)c21 (stereo partly drawn) [4j, Methyl (2-(7-ethyl-1-((2-ethylphenyl)amino)-2-oxoindolin-3-yl)acetyl)-L-alaninate]",–,–,> 50,> 50,> 50,> 50,> 50,–,–
16.8,4.8,13.8,6,9.6,"CCc1ccccc1NN1C(=O)C(CC(=O)Nc2ccccc2)c2cccc(CC)c21 (stereo not shown) [4g, 2-(7-Ethyl-1-((2-ethylphenyl)amino)-2-oxoindolin-3-yl)-N-phenylacetamide]",excellent,–,–,–,–,–,–,–,–
> 50,> 50,> 50,32.2,> 50,"CCNC(=O)CC1C(=O)N(Nc2ccccc2CC)c2c(CC)cccc21 (stereo not shown) [4b, N-Ethyl-2-(7-ethyl-1-((2-ethylphenyl)amino)-2-oxoindolin-3-yl)acetamide]",–,excellent activity,–,–,–,–,–,excellent activity,excellent activity
> 38.6,33.1,> 50,33,40.4,"CCc1ccccc1NN1C(=O)C(CC(=O)NC2CCCCC2)c2cccc(CC)c21 (stereo not shown) [4d, N-Cyclohexyl-2-(7-ethyl-1-((2-ethylphenyl)amino)-2-oxoindolin-3-yl)acetamide]",–,–,–,–,–,–,–,–,–
> 50,> 50,> 50,> 50,> 50,"CCc1cccc2c1NC(=O)C2CC(=O)OC(C)C (stereo not shown) [8b, Isopropyl 2-(7-ethyl-2-oxoindolin-3-yl)acetate]",–,–,–,–,–,–,–,–,–
> 50,32.6,> 50,33.5,> 50,"CCc1ccccc1NN1C(=O)C(CC(=O)NC(=O)OC)c2cccc(CC)c21 (stereo not shown) [4i, Methyl (2-(7-ethyl-1-((2-ethylphenyl)amino)-2-oxoindolin-3-yl)acetyl)carbamate]",–,–,–,–,–,–,–,–,–
> 50,41.3,> 50,42.9,> 50,"CNC(=O)CC1C(=O)N(Nc2ccc(F)cc2C)c2c(C)cc(F)cc21 (stereo not shown) [3h, 2-(5-Fluoro-1-((4-fluoro-2-methylphenyl)amino)-7-methyl-2-oxoindolin-3-yl)-N-methylacetamide]",–,–,–,–,–,–,–,–,–
> 50,> 50,> 50,> 50,> 50,"CNC(=O)CC1C(=O)N(Nc2ccccc2C)c2c(C)cccc21 (stereo not shown) [3b, N-Methyl-2-(7-methyl-2-oxo-1-(o-tolylamino)indolin-3-yl)acetamide]",–,–,–,–,–,–,–,–,–
–,–,–,–,–,"CCOC(=O)NC(=O)CC1C(=O)N(Nc2ccccc2CC)c2c(CC)cccc21 (stereo not shown) [4h, Ethyl (2-(7-ethyl-1-((2-ethylphenyl)amino)-2-oxoindolin-3-yl)acetyl)carbamate]",–,–,> 50,> 50,> 50,> 50,> 50,–,–
> 50,> 50,> 50,> 50,> 50,"CNC(=O)CC1C(=O)N(Nc2cccc(F)c2C)c2c1ccc(F)c2C (stereo not shown) [3d, 2-(6-Fluoro-1-((3-fluoro-2-methylphenyl)amino)-7-methyl-2-oxoindolin-3-yl)-N-methylacetamide]",–,–,–,–,–,–,–,–,–
> 50,> 50,> 50,> 50,> 50,"CCc1ccccc1NN1C(=O)C(CC(N)=O)c2cccc(CC)c21 (stereo not shown) [4f, 2-(7-Ethyl-1-((2-ethylphenyl)amino)-2-oxoindolin-3-yl)acetamide]",–,–,–,–,–,–,–,–,–
> 50,> 50,> 50,> 50,> 50,"CNC(=O)CC1C(=O)N(Nc2ccc(C)cc2C)c2c(C)cc(C)cc21 (stereo not shown) [3g, 2-(1-((2,4-dimethylphenyl)amino)-5,7-dimethyl-2-oxoindolin-3-yl)-N-methylacetamide]",–,–,–,–,–,–,–,–,–
> 50,> 50,> 50,> 50,> 50,"CCc1ccccc1NN1C(=O)C(CC(=O)OC)c2cccc(CC)c21 (stereo not shown) [6a, Methyl 2-(7-ethyl-1-((2-ethylphenyl)amino)-2-oxoindolin-3-yl)acetate]",–,–,–,–,–,–,–,–,–
> 50,42.7,> 50,42.4,> 50,"CNC(=O)CC1C(=O)N(Nc2cc(Br)ccc2C)c2c(C)ccc(Br)c21 (stereo not shown) [3l, 2-(4-Bromo-1-((5-bromo-2-methylphenyl)amino)-7-methyl-2-oxoindolin-3-yl)-N-methylacetamide]",–,–,–,–,–,–,–,–,–
> 50,40.9,> 50,44.6,> 50,"CNC(=O)CC1C(=O)N(Nc2cccc(C)c2C)c2c1ccc(C)c2C (stereo not shown) [3c, 2-(1-((2,3-Dimethylphenyl)amino)-6,7-dimethyl-2-oxoindolin-3-yl)-N-methylacetamide]",–,–,–,–,–,–,–,–,–
> 50,29.5,44.5,30.2,> 50,"CNC(=O)CC1C(=O)N(Nc2ccc(Cl)cc2C)c2c(C)cc(Cl)cc21 (stereo not shown) [3i, 2-(5-Chloro-1-((4-chloro-2-methylphenyl)amino)-7-methyl-2-oxoindolin-3-yl)-N-methylacetamide]",–,excellent inhibitor activity,–,–,–,–,–,–,excellent inhibitor activity
> 50,> 50,> 50,> 50,> 50,"CNC(=O)CC1C(=O)N(Nc2ccccc2)c2ccccc21 (stereo not shown) [3m, N-methyl-2-(2-oxo-1-(phenylamino)indolin-3-yl)acetamide]",–,–,–,–,–,–,–,–,–
> 50,> 50,> 50,> 50,> 50,"CNC(=O)CC1C(=O)N(Nc2ccc(C)cc2)c2ccc(C)cc21 (stereo not shown) [3n, N-Methyl-2-(5-methyl-2-oxo-1-(p-tolylamino)indolin-3-yl)acetamide]",–,–,–,–,–,–,–,–,–
